Test systems include Malme-3M; TK-10; EKVX; HOP-62; A498; KM-20L2; XF498; LXFL 529; HCC 2998; SN12C; DMS-273; DLD-1; ACHN; NCI-H522; OVCAR-4; M14; HOP-18; LOX IMVI; MCF7; PC-3.
Assay in all cases: growth of human tumour cells (NCI), 48 h

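How tested: cells in 96-well plates exposed to compound for 48 hours at five concentrations. The concentration for 50% growth inhibition is given as GI50.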 Active and inactive are the calls of the source. Cut-off read from the data, not from the text of the source: active = GI50 up to about 1.1 µM and inactive = higher.

Regarding `Nc1nc(SCCNC(=O)CCc2ccc(O)c(I)c2)nc2c1ncn2C1OC(CO)C(O)C1O` (centres undefined), the GI50 in the assay on Malme-3M, in the assay on TK-10, in the assay with EKVX, in the assay on HOP-62, in the assay on A498 and in the assay with KM-20L2 was > 100 µM (inactive) each time. For the same molecule, the GI50 in the assay on XF498, with LXFL 529, with HCC 2998, in the assay on SN12C, in the assay with DMS-273 and in the assay with DLD-1 was > 100 µM (inactive) in each case. For the same molecule, the GI50 with ACHN, in the assay with NCI-H522, in the assay on OVCAR-4 and in the assay with M14 was > 100 µM (inactive) throughout.

On to `N=C(N)Nc1ncccc1[N+](=O)[O-]`, for which the GI50 with Malme-3M was 44.6 µM (inactive); in the assay with HOP-18 it was > 100 µM (inactive); with HOP-62, > 100 µM (inactive); in the assay on A498 it was > 100 µM (inactive); in the assay on KM-20L2, 25.4 µM (inactive); in the assay with XF498, > 100 µM (inactive). Also, the GI50 is 55.2 µM (inactive) in the assay on HCC 2998; > 100 µM (inactive) with SN12C; > 100 µM (inactive) with DMS-273; 33.1 µM (inactive) with LOX IMVI; > 100 µM (inactive) in the assay with DLD-1; > 100 µM (inactive) with NCI-H522. Besides, the figures for the GI50 in the assay on OVCAR-4 and with MCF7 were > 100 µM (inactive) and 25.7 µM (inactive), respectively.

Take `C/N=c1/ssc(=S)n1C(C)C`: the GI50 in the assay with TK-10 is 44.6 µM (inactive); in the assay on EKVX it was 57.8 µM (inactive); in the assay on HOP-62, 18.9 µM (inactive); in the assay with KM-20L2 it was 16.7 µM (inactive); in the assay on LXFL 529 it was 4.18 µM (inactive); with HCC 2998, 13.9 µM (inactive). Further, the GI50 in the assay on ACHN was 20.8 µM (inactive); in the assay on M14 it was 12.8 µM (inactive).

`CSc1nc(NC2OCC(O)C(O)C2O)c(N)c(=O)[nH]1` (centres undefined): the GI50 with Malme-3M, with HOP-18, in the assay on EKVX, with HOP-62, in the assay with A498 and with KM-20L2 was > 100 µM (inactive) in each case. Further, the GI50 in the assay on HCC 2998, with SN12C, in the assay with DMS-273, with LOX IMVI, with DLD-1 and with NCI-H522 was > 100 µM (inactive) throughout. Moreover, the GI50 in the assay with OVCAR-4 and in the assay with MCF7 was > 100 µM (inactive) throughout.

`O=c1c(Cc2c(O)oc3cc(O)ccc3c2=O)c(O)oc2cc(O)ccc12`: the GI50 in the assay on Malme-3M, in the assay on TK-10, in the assay on EKVX, with HOP-62, with A498 and in the assay on HCC 2998 was > 100 µM (inactive) in each case. The GI50 in the assay on SN12C was > 100 µM (inactive); in the assay with LOX IMVI, > 100 µM (inactive); with OVCAR-4, 56.8 µM (inactive); with PC-3, > 100 µM (inactive); with M14, > 100 µM (inactive); in the assay with MCF7 it was > 100 µM (inactive).

Regarding `O=C(O[C@@H](/C=C/c1ccccc1)P1(=O)N(Cc2ccccc2)[C@H]2CCCC[C@@H]2N1Cc1ccccc1)c1ccccc1`, the GI50 with Malme-3M was 4.2 µM (inactive); with TK-10 it was 3.52 µM (inactive); in the assay with EKVX it was 4.12 µM (inactive); in the assay with HOP-62, 2.82 µM (inactive); in the assay with A498 it was 2.12 µM (inactive); in the assay with HCC 2998, 2.58 µM (inactive). The GI50 is 2.53 µM (inactive) with SN12C; 3.54 µM (inactive) in the assay with LOX IMVI; 2.32 µM (inactive) in the assay on ACHN; 3.55 µM (inactive) in the assay with NCI-H522; 3.59 µM (inactive) in the assay with OVCAR-4; 2.43 µM (inactive) with PC-3. The GI50 in the assay with M14 was 4.18 µM (inactive); with MCF7 it was 2.32 µM (inactive).

For `CCCCOc1ccc(OCCCCCCCCCC[N+](C)(C)C)cc1`, the GI50 in the assay with Malme-3M was 4.37 µM (inactive); with HOP-18 it was 3.42 µM (inactive); in the assay on EKVX, 15.5 µM (inactive); in the assay on HOP-62, 3.62 µM (inactive); in the assay on A498 it was 9.93 µM (inactive); with KM-20L2, 0.682 µM (active). Also, the GI50 was 1.71 µM (inactive) in the assay with XF498; 1.95 µM (inactive) with HCC 2998; 3.62 µM (inactive) in the assay with SN12C; 1.51 µM (inactive) in the assay on DMS-273; 1.53 µM (inactive) in the assay with LOX IMVI; 6.38 µM (inactive) in the assay on DLD-1. Further, the GI50 in the assay on NCI-H522 was 1.7 µM (inactive); with OVCAR-4, 2.86 µM (inactive); with MCF7, 3.44 µM (inactive).

Consider `CCOC(=O)/C(C#N)=C1/SC(C(=O)N/N=C/c2ccc(OC)cc2)=C(N)N1c1ccccc1`, for which the GI50 in the assay on TK-10 was > 100 µM (inactive); with HOP-18, > 100 µM (inactive); with HOP-62 it was 71 µM (inactive); with LXFL 529 it was 60.4 µM (inactive); in the assay on HCC 2998, > 100 µM (inactive); in the assay on DLD-1 it was > 100 µM (inactive). For the same molecule, the GI50 in the assay with ACHN is 28.9 µM (inactive); with NCI-H522, > 100 µM (inactive).

Regarding `COc1ccc(/C=N/N=C(N)N)c(C(=O)O)c1OC`, the GI50 in the assay on TK-10, in the assay with HOP-18, in the assay on EKVX, in the assay on A498, in the assay with KM-20L2 and in the assay on LXFL 529 was > 100 µM (inactive) throughout. For the same molecule, the GI50 with SN12C, in the assay with DMS-273, in the assay on ACHN, in the assay with NCI-H522, with OVCAR-4 and in the assay with M14 was > 100 µM (inactive) throughout.

Regarding `CC(=O)NC1=C[C@@H]([C@H]2COC(C)(C)O2)OC1=O`, the GI50 with Malme-3M, with HOP-18, with EKVX, with HOP-62, in the assay on A498 and in the assay with KM-20L2 was > 100 µM (inactive) each time. For the same molecule, the GI50 in the assay on XF498 was > 82.8 µM (inactive); in the assay with HCC 2998 it was 99.3 µM (inactive); in the assay with SN12C it was > 100 µM (inactive); in the assay on DMS-273, > 100 µM (inactive); with LOX IMVI it was > 100 µM (inactive); in the assay with DLD-1, > 100 µM (inactive). The GI50 with NCI-H522 and in the assay with MCF7 was > 100 µM (inactive) in each case.

With `COc1ccc(OC)c(NC(=O)C(=O)C(C(=O)c2ccccc2F)C2OC(=O)c3ccccc32)c1` (centres undefined), the GI50 in the assay with TK-10 is > 100 µM (inactive); in the assay with EKVX, 62.2 µM (inactive); in the assay on HOP-62, 50.2 µM (inactive); in the assay with A498, > 100 µM (inactive); in the assay with KM-20L2, 51.9 µM (inactive); in the assay with XF498, 34.8 µM (inactive). The GI50 with LXFL 529 is 77.3 µM (inactive); in the assay on HCC 2998 it was 44.8 µM (inactive); with SN12C it was 35.9 µM (inactive); with DMS-273 it was 30.6 µM (inactive); in the assay on LOX IMVI it was 25.2 µM (inactive); with DLD-1, 42 µM (inactive). Moreover, the GI50 with ACHN was 82.6 µM (inactive); in the assay on NCI-H522, 23.5 µM (inactive); in the assay with OVCAR-4, 66.8 µM (inactive); in the assay with M14 it was > 100 µM (inactive).

For the molecule `CCOC(=O)c1csc(NC(=O)CCN(CC)CC)n1`, the GI50 in the assay with TK-10 is 23.8 µM (inactive); with EKVX, 63.2 µM (inactive); with HOP-62, > 100 µM (inactive); in the assay with A498 it was 91.2 µM (inactive); in the assay on HCC 2998, 49.8 µM (inactive); in the assay on LOX IMVI it was 33.2 µM (inactive). Further, the GI50 was 42.9 µM (inactive) in the assay with ACHN; 57.4 µM (inactive) in the assay with OVCAR-4; 41 µM (inactive) in the assay on PC-3; 25 µM (inactive) in the assay on M14; 26 µM (inactive) in the assay on MCF7.

Take `N/C(=C\c1ccc(/C=C(\NC(=O)c2ccccc2)c2nc3c([nH]2)C(=O)c2ccccc2C3=O)cc1)c1nc2c([nH]1)C(=O)c1ccccc1C2=O`: the GI50 was 23.1 µM (inactive) with TK-10; 14.3 µM (inactive) in the assay with HOP-18; 23.3 µM (inactive) with EKVX; 13.6 µM (inactive) in the assay on A498; 16.5 µM (inactive) with KM-20L2; 11.6 µM (inactive) in the assay with XF498. In addition, the GI50 in the assay with LXFL 529 is 10.7 µM (inactive); in the assay on SN12C it was 14.3 µM (inactive); with DMS-273, 18.5 µM (inactive); in the assay on LOX IMVI it was 18.1 µM (inactive); in the assay on DLD-1, 12.7 µM (inactive); in the assay with ACHN it was 15.6 µM (inactive). In addition, the GI50 with NCI-H522 is 11.9 µM (inactive); in the assay with OVCAR-4 it was 11.2 µM (inactive); in the assay with M14 it was 16.2 µM (inactive).

The record behind these values is ChEMBL document CHEMBL1201862, “PubChem BioAssay data set” (2004).
